Laboratory results taken from patent publication US12338256B2, “Aza-tetracyclic oxazepine compounds and uses thereof” (Genentech, Inc., priority 2022, dated 2025).

What was measured:
Format in all cases: cell-based
[1] = test system: H1975 (KRAS wild type human lung adenocarcinoma cell line); experiment: KRAS 3D-Cell Proliferation Assay, H1975 (Example 503); settings: Homo sapiens, NCI-H1975, 168 h, H1975 3D culture, 7 days, CellTiter-Glo 3D; read-out: Prolif H1975 3D ATP IC50
Method in brief: (§1)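 IC50s come from a 4-parameter Hill fit of luminescence (CellTiter-Glo 3D) normalized between DMSO (0%) and 1 μM staurosporine (100%). Cells in low-attachment 3D culture, RPMI-1640 with 10% FBS, received serial compound dilutions (0.3% DMSO) after overnight and were incubated 7 days at 37 °C.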

[2] = test system: AsPC-1 (homozygous mutant KRAS G12D human pancreatic cell line); experiment: KRAS 3D-Cell Proliferation Assay, AsPC-1 (Example 503); settings: Homo sapiens, ASPC1, 168 h, AsPC-1 3D culture, 7 days, CellTiter-Glo 3D; read-out: Prolif AsPC-1 3D ATP IC50
Method in brief: as §1

[3] = test system: HPAC (homozygous mutant KRAS G12D human pancreatic cell line); experiment: KRAS 3D-Cell Proliferation Assay, HPAC (Example 503); settings: Homo sapiens, HPAC, 168 h, HPAC 3D culture, 7 days, CellTiter-Glo 3D; read-out: Prolif HPAC 3D ATP IC50
Method in brief: as §1

Cc1nc(N)cc(-c2nc3c4c(nc(OC[C@@]56CCCN5CC5(CC5(F)F)C6)nc4c2F)N2C[C@H]4CC[C@H](N4)[C@H]2[C@H](C(F)(F)F)O3)c1C(F)(F)F (stereo partly drawn) [Compound 254, 4-((5R,5aS,6S,9R)-12-(((7a′S)-2,2-Difluorodihydro-1′H,3′H-spiro[cyclopropane-1,2′-pyrrolizin]-7a′(5′H)-yl)methoxy)-1-fluoro-5-(trifluoromethyl)-5a,6,7,8,9,10-hexahydro-5H-4-oxa-3,10a,11,13,14-pentaaza[6,9]methanonaphtho[1,8-ab]heptalene-2-yl)-6-methyl-5-(trifluoromethyl)pyridin-2-amine]
IC50 [1]: 139 nM | IC50 [2]: 2.5 nM | IC50 [3]: 1.86 nM

Cc1c(F)c(N)cc(-c2nc3c4c(nc(OCC5(CN6CCOCC6)CC5)nc4c2F)N2C[C@H]4CC[C@H](N4)[C@H]2[C@H](C)O3)c1C(F)(F)F [Compound 118, 2-Fluoro-5-((5S,5aS,6S,9R)-1-fluoro-5-methyl-12-((1-(morpholinomethyl)cyclopropyl)methoxy)-5a,6,7,8,9,10-hexahydro-5H-4-oxa-3,10a,11,13,14-pentaaza-6,9-methanonaphtho[1,8-ab]heptalen-2-yl)-3-methyl-4-(trifluoromethyl)aniline]
IC50 [1]: 519 nM | IC50 [2]: 0.6 nM | IC50 [3]: 0.43 nM

C[C@@H]1Oc2nc(-c3cc(N)c(F)c(F)c3CC(F)F)c(F)c3nc(OC[C@@]45CCCN4C[C@H](F)C5)nc(c23)N2C[C@H]3CC[C@H](N3)[C@@H]12 [Compound 190, 4-(2,2-Difluoroethyl)-2,3-difluoro-5-((5S,5aS,6S,9R)-1-fluoro-12-(((2R,7aS)-2-fluorotetrahydro-1H-pyrrolizin-7a(5H)-yl)methoxy)-5-methyl-5a,6,7,8,9,10-hexahydro-5H-4-oxa-3,10a,11,13,14-pentaaza-6,9-methanonaphtho[1,8-ab]heptalene-2-yl)aniline]
IC50 [1]: 1560 nM | IC50 [2]: 12.6 nM | IC50 [3]: 2.2 nM

Cc1c(F)c(N)cc(-c2nc3c4c(nc(OC[C@@]56CCCN5C/C(=C\F)C6)nc4c2F)N2C[C@H]4CC[C@H](N4)[C@H]2[C@H](C)O3)c1C(F)(F)F [Compound 64, 2-fluoro-5-((5S,5aS,6S,9R)-1-fluoro-12-(((S,Z)-2-(fluoromethylene)tetrahydro-1H-pyrrolizin-7a(5H)-yl)methoxy)-5-methyl-5a,6,7,8,9,10-hexahydro-5H-4-oxa-3,10a,11,13,14-pentaaza-6,9-methanonaphtho[1,8-ab]heptalen-2-yl)-3-methyl-4-(trifluoromethyl)aniline]
IC50 [1]: 235 nM | IC50 [2]: 0.9 nM | IC50 [3]: 0.46 nM

Cc1nc(N)cc(-c2nc3c4c(nc(OCC5(CN6C7CCC6COC7)CC5)nc4c2F)N2C[C@H]4CC[C@H](N4)[C@H]2[C@H](C)O3)c1C(F)(F)F [Compound 206, 4-((5S,5aS,6S,9R)-12-((1-((3-Oxa-8-azabicyclo[3.2.1]octan-8-yl)methyl)cyclopropyl)methoxy)-1-fluoro-5-methyl-5a,6,7,8,9,10-hexahydro-5H-4-oxa-3,10a,11,13,14-pentaaza-6,9-methanonaphtho[1,8-ab]heptalene-2-yl)-6-methyl-5-(trifluoromethyl)pyridin-2-amine]
IC50 [1]: 2840 nM | IC50 [2]: 3.6 nM | IC50 [3]: 3.16 nM

C[C@@H]1Oc2nc(-c3cc(N)c(F)c(Cl)c3C(F)(F)F)c(F)c3nc(OC[C@@]45CCCN4C[C@H](F)C5)nc(c23)N2C[C@H]3CC[C@H](N3)[C@@H]12 [Compound 104, 3-Chloro-2-fluoro-5-((5S,5aS,6S,9R)-1-fluoro-12-(((2R,7aS)-2-fluorotetrahydro-1H-pyrrolizin-7a(5H)-yl)methoxy)-5-methyl-5a,6,7,8,9,10-hexahydro-5H-4-oxa-3,10a,11,13,14-pentaaza-6,9-methanonaphtho[1,8-ab]heptalen-2-yl)-4-(trifluoromethyl)aniline]
IC50 [1]: 221 nM | IC50 [2]: 1.4 nM | IC50 [3]: 0.65 nM

Cc1nc(N)cc(-c2nc3c4c(nc(OC[C@@]56CCCN5C[C@H](F)C6)nc4c2F)N2C[C@H]4CC[C@H](N4)[C@H]2[C@H](C(F)(F)F)O3)c1C(F)(F)F [Compound 242, 4-((5R,5aS,6S,9R)-1-Fluoro-12-(((2R,7aS)-2-fluorotetrahydro-1H-pyrrolizin-7a(5H)-yl)methoxy)-5-(trifluoromethyl)-5a,6,7,8,9,10-hexahydro-5H-4-oxa-3,10a,11,13,14-pentaaza-6,9-methanonaphtho[1,8-ab]heptalen-2-yl)-6-methyl-5-(trifluoromethyl)pyridin-2-amine]
IC50 [1]: 1040 nM | IC50 [2]: 7.8 nM | IC50 [3]: 5.11 nM

C[C@@H]1Oc2nc(-c3cc(N)cc(F)c3C(F)(F)F)c(F)c3nc(OC[C@@H]4CC[C@H]5COCCN54)nc(c23)N2C[C@H]3CC[C@H](N3)[C@@H]12 [Compound 77, 3-Fluoro-5-((5S,5aS,6S,9R)-1-fluoro-12-(((6S,8aS)-hexahydro-1H-pyrrolo[2,1-c][1,4]oxazin-6-yl)methoxy)-5-methyl-5a,6,7,8,9,10-hexahydro-5H-4-oxa-3,10a,11,13,14-pentaaza-6,9-methanonaphtho[1,8-ab]heptalen-2-yl)-4-(trifluoromethyl)aniline]
IC50 [1]: 358 nM | IC50 [2]: 11.9 nM | IC50 [3]: 2.79 nM

Cc1c(F)c(N)c(F)c(-c2nc3c4c(nc(OC[C@@H]5CC[C@H]6COCCN65)nc4c2F)N2C[C@H]4CC[C@H](N4)[C@H]2[C@H](C)O3)c1C(F)(F)F [Compound 96, 2,6-Difluoro-3-((5S,5aS,6S,9R)-1-fluoro-12-(((6S,8aS)-hexahydro-1H-pyrrolo[2,1-c][1,4]oxazin-6-yl)methoxy)-5-methyl-5a,6,7,8,9,10-hexahydro-5H-4-oxa-3,10a,11,13,14-pentaaza-6,9-methanonaphtho[1,8-ab]heptalen-2-yl)-5-methyl-4-(trifluoromethyl)aniline]
IC50 [1]: 982 nM | IC50 [2]: 5.8 nM | IC50 [3]: 3.69 nM

C[C@@H]1Oc2nc(-c3c(C(F)(F)F)cc(F)c(N)c3F)c(F)c3nc(OC[C@@]45CCCN4C[C@H](F)C5)nc(c23)N2C[C@H]3CC[C@H](N3)[C@@H]12 [Compound 90, 2,6-Difluoro-3-((5S,5aS,6S,9R)-1-fluoro-12-(((2R,7aS)-2-fluorotetrahydro-1H-pyrrolizin-7a(5H)-yl)methoxy)-5-methyl-5a,6,7,8,9,10-hexahydro-5H-4-oxa-3,10a,11,13,14-pentaaza-6,9-methanonaphtho[1,8-ab]heptalen-2-yl)-4-(trifluoromethyl)aniline]
IC50 [1]: 1140 nM | IC50 [2]: 18.9 nM | IC50 [3]: 7.3 nM

C[C@@H]1Oc2nc(-c3cc(N)c(F)c(Cl)c3CC(F)F)c(F)c3nc(OC[C@@]45CCCN4C[C@H](F)C5)nc(c23)N2C[C@H]3CC[C@H](N3)[C@@H]12 [Compound 186, 3-Chloro-4-(2,2-difluoroethyl)-2-fluoro-5-((5S,5aS,6S,9R)-1-fluoro-12-(((2R,7aS)-2-fluorotetrahydro-1H-pyrrolizin-7a(5H)-yl)methoxy)-5-methyl-5a,6,7,8,9,10-hexahydro-5H-4-oxa-3,10a,11,13,14-pentaaza-6,9-methanonaphtho[1,8-ab]heptalene-2-yl)aniline]
IC50 [1]: 1090 nM | IC50 [2]: 8.9 nM | IC50 [3]: 2.58 nM

Cc1c(F)c(N)cc(-c2nc3c4c(nc(OCC5(CN6CCOC[C@H]6C)CC5)nc4c2F)N2C[C@H]4CC[C@H](N4)[C@H]2[C@H](C)O3)c1C(F)(F)F [Compound 129, 2-Fluoro-5-((5S,5aS,6S,9R)-1-fluoro-5-methyl-12-((1-(((R)-3-methylmorpholino)methyl)cyclopropyl)methoxy)-5a,6,7,8,9,10-hexahydro-5H-4-oxa-3,10a,11,13,14-pentaaza-6,9-methanonaphtho[1,8-ab]heptalen-2-yl)-3-methyl-4-(trifluoromethyl)aniline]
IC50 [1]: 1150 nM | IC50 [2]: 1 nM | IC50 [3]: 1.1 nM

Cc1nc(N)cc(-c2nc3c4c(nc(OC[C@@H]5CC[C@H]6COCCN65)nc4c2F)N2C[C@H]4CC[C@H](N4)[C@H]2[C@H](C(F)(F)F)O3)c1C(F)(F)F [Compound 253, 4-((5R,5aS,6S,9R)-1-Fluoro-12-(((6S,8aS)-hexahydro-1H-pyrrolo[2,1-c][1,4]oxazin-6-yl)methoxy)-5-(trifluoromethyl)-5a,6,7,8,9,10-hexahydro-5H-4-oxa-3,10a,11,13,14-pentaaza-6,9-methanonaphtho[1,8-ab]heptalene-2-yl)-6-methyl-5-(trifluoromethyl)pyridin-2-amine]
IC50 [1]: 5080 nM | IC50 [2]: 64.6 nM | IC50 [3]: 19.8 nM

Cc1c(F)c(N)c(F)c(-c2nc3c4c(nc(OC[C@@]56CCCN5CC5(CC5(F)F)C6)nc4c2F)N2C[C@H]4CC[C@H](N4)[C@H]2[C@H](C)O3)c1C(F)(F)F (stereo partly drawn) [Compound 225, 3-((5S,5aS,6S,9R)-12-(((7′S)-2,2-Difluorodihydro-1′H,3′H-spiro[cyclopropane-1,2′-pyrrolizin]-7a′(5′H)-yl)methoxy)-1-fluoro-5-methyl-5a,6,7,8,9,10-hexahydro-5H-4-oxa-3,10a,11,13,14-pentaaza[6,9]methanonaphtho[1,8-ab]heptalene-2-yl)-2,6-difluoro-5-methyl-4-(trifluoromethyl)aniline]
IC50 [1]: 561 nM | IC50 [2]: 2.9 nM | IC50 [3]: 1.19 nM
